The values that follow are results of earlier work, collected in patent US5741805A, “Controlled release pilocarpine delivery system” (OraMed, Inc., priority 1995, dated 1998).

The structures appear in SMILES notation.

This series deals with xerostomia. To be noted: 5 mg capsules or tablets three to four times a day.

`CC[C@@H]1C(=O)OC[C@@H]1Cc1cncn1C` [Pilocarpine, pilocarpine]: the salivary function result was “marked improvement” and the side effects entry is listed as “numerous side effects”.
